Assay results from ChEMBL document CHEMBL4680251, “Discovery of a 2-pyridinyl urea-containing compound YD57 as a potent inhibitor of apoptosis signal-regulating kinase 1 (ASK1)” (Eur J Med Chem, 2020).

Key:
HepG2 [1] = experiment: Induction of cell cycle arrest in human HepG2 cells assessed as accumulation at G0/G1 phase at 4 uM incubated for 24 hrs by propidium iodide staining based flow cytometry (reference value: 38.34%); type: functional
HepG2 [2] = experiment: Induction of cell cycle arrest in human HepG2 cells assessed as accumulation at S phase at 16 uM incubated for 24 hrs by propidium iodide staining based flow cytometry (reference value: 33.27%); type: functional
[3] = target: T1, Mitogen-activated protein kinase kinase kinase 5 (Homo sapiens, UniProt Q99683); experiment: Inhibition of ASK1 (unknown origin)
T1 sequence (Q99683 whole entry): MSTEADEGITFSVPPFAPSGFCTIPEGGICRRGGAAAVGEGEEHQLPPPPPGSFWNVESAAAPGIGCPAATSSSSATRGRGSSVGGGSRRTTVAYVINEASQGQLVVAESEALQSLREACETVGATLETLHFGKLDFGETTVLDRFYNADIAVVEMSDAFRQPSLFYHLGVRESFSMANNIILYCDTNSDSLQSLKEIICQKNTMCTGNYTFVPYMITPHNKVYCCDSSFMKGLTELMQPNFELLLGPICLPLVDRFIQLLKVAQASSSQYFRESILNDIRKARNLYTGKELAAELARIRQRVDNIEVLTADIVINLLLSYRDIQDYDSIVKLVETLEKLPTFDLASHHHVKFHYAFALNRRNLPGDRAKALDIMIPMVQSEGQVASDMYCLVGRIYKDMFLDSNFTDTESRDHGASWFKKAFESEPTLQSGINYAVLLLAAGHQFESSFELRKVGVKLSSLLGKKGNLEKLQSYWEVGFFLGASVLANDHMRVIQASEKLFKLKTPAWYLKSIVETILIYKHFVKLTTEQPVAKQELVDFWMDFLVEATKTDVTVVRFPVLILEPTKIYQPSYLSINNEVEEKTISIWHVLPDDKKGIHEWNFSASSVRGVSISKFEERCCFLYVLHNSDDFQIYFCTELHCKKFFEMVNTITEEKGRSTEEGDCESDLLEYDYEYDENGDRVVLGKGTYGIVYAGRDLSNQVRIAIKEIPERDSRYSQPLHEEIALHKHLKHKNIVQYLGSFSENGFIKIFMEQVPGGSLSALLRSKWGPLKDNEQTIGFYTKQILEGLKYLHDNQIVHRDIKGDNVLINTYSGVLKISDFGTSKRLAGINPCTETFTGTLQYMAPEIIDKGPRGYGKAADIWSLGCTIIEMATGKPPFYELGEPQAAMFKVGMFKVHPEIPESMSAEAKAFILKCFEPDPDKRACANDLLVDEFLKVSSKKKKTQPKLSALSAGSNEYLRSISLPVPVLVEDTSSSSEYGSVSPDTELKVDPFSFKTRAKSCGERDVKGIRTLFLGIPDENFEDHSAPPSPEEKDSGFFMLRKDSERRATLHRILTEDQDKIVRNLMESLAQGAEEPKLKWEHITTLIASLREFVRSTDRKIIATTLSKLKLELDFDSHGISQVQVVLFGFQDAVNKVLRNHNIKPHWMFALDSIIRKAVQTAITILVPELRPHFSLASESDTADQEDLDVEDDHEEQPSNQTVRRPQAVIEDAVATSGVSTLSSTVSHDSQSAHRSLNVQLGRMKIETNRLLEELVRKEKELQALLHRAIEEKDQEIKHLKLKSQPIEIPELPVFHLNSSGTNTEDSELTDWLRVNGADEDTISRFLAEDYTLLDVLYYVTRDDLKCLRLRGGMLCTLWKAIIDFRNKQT

[4] = Inhibition of human full length recombinant CDK9/cyclin T1 using KTFCGTPEYLAPE as substrate incubated for 40 mins in presence of [gamma-33ATP] by radiometric scintillation counting analysis
HepG2 [5] = experiment: Induction of cell cycle arrest in human HepG2 cells assessed as accumulation at S phase at 4 uM incubated for 24 hrs by propidium iodide staining based flow cytometry (reference value: 33.27%); type: functional
CDK3/Cyclin E = CDK3/Cyclin E (Homo sapiens, UniProt Q00526); experiment: Inhibition of full length human recombinant CDK3/Cyclin E using histone H1 as substrate incubated for 40 mins in presence of [gamma-33ATP] by radiometric scintillation counting analysis; type: protein-complex assay
HepG2 [6] = experiment: Induction of cell cycle arrest in human HepG2 cells assessed as accumulation at G2/M phase at 0.5 uM incubated for 24 hrs by propidium iodide staining based flow cytometry (reference value: 33.49%); type: functional
HepG2 [7] = experiment: Induction of cell cycle arrest in human HepG2 cells assessed as accumulation at G0/G1 phase at 1 uM incubated for 24 hrs by propidium iodide staining based flow cytometry (reference value: 38.34%); type: functional
HepG2 [8] = experiment: Induction of cell cycle arrest in human HepG2 cells assessed as accumulation at G0/G1 phase at 0.5 uM incubated for 24 hrs by propidium iodide staining based flow cytometry (reference value: 38.34%); type: functional
HepG2 [9] = experiment: Induction of cell cycle arrest in human HepG2 cells assessed as accumulation at G0/G1 phase at 2 uM incubated for 24 hrs by propidium iodide staining based flow cytometry (reference value: 38.34%); type: functional
HepG2 [10] = experiment: Induction of cell cycle arrest in human HepG2 cells assessed as accumulation at G2/M phase at 1 uM incubated for 24 hrs by propidium iodide staining based flow cytometry (reference value: 33.49%); type: functional
HepG2 [11] = experiment: Induction of cell cycle arrest in human HepG2 cells assessed as accumulation at G0/G1 phase at 16 uM incubated for 24 hrs by propidium iodide staining based flow cytometry (reference value: 38.34%); type: functional
[12] = target: T2, Mitogen-activated protein kinase kinase kinase 7 (Homo sapiens, UniProt O43318); experiment: Inhibition of TAK1 (unknown origin)
T2 sequence (O43318 whole entry): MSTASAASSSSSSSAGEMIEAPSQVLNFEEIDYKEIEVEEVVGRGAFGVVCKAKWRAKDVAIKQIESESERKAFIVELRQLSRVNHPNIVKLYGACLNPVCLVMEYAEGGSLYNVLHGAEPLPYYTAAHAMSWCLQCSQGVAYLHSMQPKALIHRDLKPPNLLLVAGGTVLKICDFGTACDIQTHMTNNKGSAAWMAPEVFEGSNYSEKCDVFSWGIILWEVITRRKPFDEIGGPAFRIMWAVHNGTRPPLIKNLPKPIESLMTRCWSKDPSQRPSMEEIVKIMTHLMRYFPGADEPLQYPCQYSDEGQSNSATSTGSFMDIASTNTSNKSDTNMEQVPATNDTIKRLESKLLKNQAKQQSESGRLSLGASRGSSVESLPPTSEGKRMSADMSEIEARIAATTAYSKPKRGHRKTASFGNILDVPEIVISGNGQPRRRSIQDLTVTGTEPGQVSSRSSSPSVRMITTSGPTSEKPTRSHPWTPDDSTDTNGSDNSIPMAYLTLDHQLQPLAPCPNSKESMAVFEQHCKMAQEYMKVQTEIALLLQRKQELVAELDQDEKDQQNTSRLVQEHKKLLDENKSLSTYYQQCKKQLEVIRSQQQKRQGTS

HepG2 [13] = experiment: Induction of cell cycle arrest in human HepG2 cells assessed as accumulation at S phase at 0.5 uM incubated for 24 hrs by propidium iodide staining based flow cytometry (reference value: 33.27%); type: functional

Chain of CDK3/Cyclin E (P24864 whole entry): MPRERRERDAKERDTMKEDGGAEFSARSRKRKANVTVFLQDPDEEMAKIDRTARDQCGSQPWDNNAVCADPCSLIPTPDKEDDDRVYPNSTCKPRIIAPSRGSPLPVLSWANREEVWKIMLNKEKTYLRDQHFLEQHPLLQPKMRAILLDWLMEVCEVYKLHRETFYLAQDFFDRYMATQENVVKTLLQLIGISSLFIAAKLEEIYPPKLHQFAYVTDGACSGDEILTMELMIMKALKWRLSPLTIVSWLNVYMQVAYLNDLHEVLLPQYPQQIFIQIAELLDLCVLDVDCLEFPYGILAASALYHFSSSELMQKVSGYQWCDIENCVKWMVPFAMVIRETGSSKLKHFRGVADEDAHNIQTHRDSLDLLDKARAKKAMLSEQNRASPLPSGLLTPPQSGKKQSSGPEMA
Chain of CDK3/Cyclin E (Q00526 whole entry): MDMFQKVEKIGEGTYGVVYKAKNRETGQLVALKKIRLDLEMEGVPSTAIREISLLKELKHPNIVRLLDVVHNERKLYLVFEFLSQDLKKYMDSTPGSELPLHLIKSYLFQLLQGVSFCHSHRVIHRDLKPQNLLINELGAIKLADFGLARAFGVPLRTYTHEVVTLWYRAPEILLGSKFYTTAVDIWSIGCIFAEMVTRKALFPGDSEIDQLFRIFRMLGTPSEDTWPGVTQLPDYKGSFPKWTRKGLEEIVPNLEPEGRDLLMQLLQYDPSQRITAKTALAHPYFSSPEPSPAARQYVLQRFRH

## C[C@H](CO)n1cnnc1-c1cccc(NC(=O)Nc2cc3ccccn3n2)n1
HepG2 [1]
  Activity: 66.33%
HepG2 [2]
  Activity: 9.63%
[3]
  IC50: 0.0338 µM
[4]
  IC50: 0.0942 µM
HepG2 [5]
  Activity: 7.9%
CDK3/Cyclin E
  IC50: 0.117 µM
HepG2 [6]
  Activity: 27.33%
HepG2 [7]
  Activity: 60.13%
HepG2 [8]
  Activity: 46.22%
HepG2 [9]
  Activity: 63.79%
HepG2 [10]
  Activity: 30.59%
HepG2 [11]
  Activity: 69.77%
[12]
  IC50: 4.98 µM
HepG2 [13]
  Activity: 31.94%
